From US20110091728A1, “Felbamate With Improved Bulk Density” (priority 2007, published 2011)

Tests used:
[1] = Bulk density determination of felbamate (10 ml graduated cylinder, 50 taps); type: physicochemical
[2] = as above; type: physicochemical; remark: listed apart in the source
Source text: One important characteristic is tapped bulk density, or simply tapped (or tap) density, that is the maximum packing density of a powder (or blend of powders) achieved under the influence of well defined, externally applied forces (see, http://en.wikipedia.org/wiki/Bulk_density). The minimum packed volume thus achieved depends on a number of factors including particle size distribution, true density, particle shape and cohesiveness due to surface forces including moisture. Therefore, the tap density of a material can be used to predict both its flow properties and its compressibility. These two parameters are important in the overall tabletting process, which requires that loose powders be compacted into a durable solid form with the correct mechanical strength, porosity and dissolution characteristics. These parameters are also important in the formation of oral suspensions, which ideally contain particles of high bulk density, enabling even dispersion of the particles throughout the suspension after shaking and before consumption.
Felbamate (1.211 gm) purified by the above process (Example 3) was poured into a 10 ml graduated cylinder. The untapped volume of felbamate was 3.5 ml, resulting in an untapped bulk density of 0.35 gm/ml which was greater than the untapped bulk density of felbamate prepared by other methods (see below, Examples 9 and 10). The graduated cylinder was tapped until the felbamate (50 taps) no longer settled. The volume of felbamate after tapping was 2.2 ml, resulting in a tapped bulk density of 0.55 gm/ml.
Felbamate (0.972 gm) synthesized by the process disclosed in WO 94/06737 was poured into a 10 ml graduated cylinder. The untapped volume of felbamate was 5.1 ml, resulting in an untapped bulk density of 0.19 gm/ml. The graduated cylinder was tapped until the felbamate (50 taps) no longer settled. The volume of felbamate after tapping was 3.2 ml, resulting in a tapped bulk density of 0.30 gm/ml.
Felbamate (2 gm) synthesized by the process disclosed in U.S. Pat. No. 4,868,327 was purified by adding to 20 ml of methanol, heating the methanol to reflux to obtain a clear solution, cooling the solution to room temperature over three hours with stirring, and isolating the felbamate by filtration and drying under vacuum at 50° C. Felbamate (0.927 gm) purified by this process was poured into a 10 ml graduated cylinder. The untapped volume of felbamate was 6.5 ml, resulting in an untapped bulk density of 0.14 gm/ml. The graduated cylinder was tapped until the felbamate (50 taps) no longer settled. The volume of felbamate after tapping was 2.9 ml, resulting in a tapped bulk density of 0.32 gm/ml.

tapped bulk density ([1]; felbamate purified from acetonitrile-water (Example 4)): 0.55 gm/ml
tapped bulk density ([1]; felbamate purified from isopropanol-water (Example 6)): 0.54 gm/ml
tapped bulk density ([1]; felbamate purified from water (Example 7)): 0.35 gm/ml
untapped bulk density ([2]; Table I, U.S. Pat. No. 4,868,327): 0.14 g/mL
tapped bulk density ([2]; Table I, U.S. Pat. No. 4,868,327, 50 taps): 0.32 g/mL
untapped bulk density ([2]; Table I, WO 94/06737): 0.19 g/mL
tapped bulk density ([2]; Table I, WO 94/06737, 50 taps): 0.3 g/mL
untapped bulk density ([2]; Table I, purification process as disclosed in Example 3): 0.35 g/mL
tapped bulk density ([2]; Table I, purification process as disclosed in Example 3, 50 taps): 0.55 g/mL
untapped bulk density ([2]; felbamate by process of U.S. Pat. No. 4,868,327, recrystallised from methanol (Example 10)): 0.14 gm/ml
tapped bulk density ([2]; felbamate by process of U.S. Pat. No. 4,868,327, recrystallised from methanol, 50 taps (Example 10)): 0.32 gm/ml
untapped bulk density ([2]; felbamate purified by process of Example 3, 1.211 gm in 10 ml cylinder (Example 8)): 0.35 gm/ml
tapped bulk density ([2]; felbamate purified by process of Example 3, 50 taps (Example 8)): 0.55 gm/ml
tapped bulk density ([2]; felbamate purified from methanol-water (Example 3)): 0.5 gm/ml
tapped bulk density ([2]; felbamate purified from tetrahydrofuran-water (Example 5)): 0.4 gm/ml
untapped bulk density ([2]; felbamate synthesized by process of WO 94/06737 (Example 9)): 0.19 gm/ml
tapped bulk density ([2]; felbamate synthesized by process of WO 94/06737, 50 taps (Example 9)): 0.30 gm/ml
SMILES: NC(=O)OCC(COC(N)=O)c1ccccc1 [Felbamate, 2-phenyl-1,3-propanediol dicarbamate]
